Test results as given in patent US4370331A, “L-Glaucine containing composition for cough relief” (Karl O. Helm Aktiengesellschaft, priority 1977, dated 1983).
Values joined by “and” are separate entries in the source; they are usually repeats but may differ in a detail not shown here. Equal entries are not always repeated. Structures can show the parent of a compound that is named as a salt. Where two headings read alike, the source gives them in different places.

Key:
cough pulses [1] = experiment: Citric acid aerosol cough test in guinea pigs, subcutaneous, 30 min (method of Friebel and Reichle), Comparative test 1; type: in vivo; conditions: s.c.; for ED50: Cavia porcellus, sc, 0.5 h, 30 min after administering, 20% citric acid aerosol, 8 min
Experimental: In order to compare the anti-cough effectiveness of codeine phosphate with the effectiveness of the different isomers of glaucine hydrobromide, the testing method of Friebel and Reichle was used. 60 guinea pigs with weights between 200 and 300 g were divided up into ten groups of different sizes. Before administering the active substance, each animal was subjected, on the same day as the day of test with the active substance, for a period of 8 minutes to an aerosol of 20% citric acid, the animal being confined in a chamber at constant air pressure. During this control test the number of cough pulses was counted with the help of a pressure transmitter. From these measurements an average control value for each group was calculated. After this preliminary control test, there was given subcutaneously to each animal of each group a suspension of the active substance in 1% sodium carboxymethyl cellulose. After 30 minutes each animal was again exposed in the test chamber for 8 minutes to the aerosol of 20% citric acid and the number of cough pressure pulses recorded. The different active substances were administered in increasing doses ranging from 3 mg/kg to 100 mg/kg of body weight. Altogether eight different doses were given. The results were expressed as percent deviation from the average control value for the group on the same day, the deviation being entered in a diagram against the logarithm of the dose administered. From the resulting effectiveness curve, based on the logarithm of the dose, the coefficient of correlation and the ED50 were calculated for each active substance, by the regression analysis method of Downie and Heath (1965). The values obtained for codeine phosphate, for d-glaucine hydrobromide, for d,l-glaucine hydrobromide and for l-glaucine hydrobromide thirty minutes after administering the active substance are summarized in Table I.

[2] = test system: isolated guinea pig intestines (contractions induced by electric voltages); experiment: Suppression of electrically induced contractions in isolated guinea pig intestines, Comparative test 4; parameters: electrically induced contractions (Table III): unit not given here
Experimental: In a further series of tests the effects of different doses of codeine phosphate in suppressing contractions induced in isolated guinea pig intestines by electric voltages were tested. For this purpose one electrode was immersed in the solution surrounding the intestinal preparation. The second electrode was connected to the preparation at the attachment point.

intestinal motility = experiment: Intestinal motility / evacuation action of stomach-intestinal tract of mice (carbon suspension), Comparative test 2; type: in vivo; conditions: s.c., 2 h, control 74.3%, * = significantly different from control (p < 0.05)
From the text: One of the most unpleasant side effects of anti-cough medicine containing codeine is constipation and the occurrence of intestinal spasms. A model test for determining the effects of anti-cough active substances on intestinal motility and on the evacuation action of the stomach-intestinaltract of mice was therefore made. After subcutaneous injection of the active substance, each animal was given, through a throat probe, a 10% suspension of carbon in a 5% aqueous slurry of gum arabic. Two hours later the intestine was sectioned and the distance of stomach coecum measured, and also the distance travelled by the carbon, which was expressed as percent of intestine length.
The effects of codeine phosphate, of d-glaucine hydrobromide and of l-glaucine hydrobromide on intestinal motility were determined at different doses. For each dose the average value was calculated for a sufficient number of animals.

[3] = Toxicity (LD50) in mice by the Wilcox method, Comparative test 7; type: in vivo; conditions: mouse, in vivo
Experimental: (§1) The toxicity thresholds of codeine phosphate, of d-glaucine hydrobromide and of d,l-glaucine hydrobromide were determined in mice by the Wilcox method. […] The toxicities of codeine phosphate and d,l-glaucine hydrobromide are about equal.

coughing centre = experiment: Coughing reflex by electrical stimulation of upper laryngeal nerves of anaesthetized cats (method of Domenjoz), Comparative test 5; type: in vivo; conditions: intravenous; for minimal effective dose: Felis catus, read-out: MED (minimal effective dose completely suppressing the coughing reflex); for minimal effective dose / Duration of cough suppression: anaesthetized cats; for Duration of cough suppression: at MED
Experimental: In a series of tests conducted by the method of Domenjoz, the effects of the different active substances on the coughing centre was examined by electrical stimulation of the upper laryngeal nerves of anaesthetized cats. Electrical stimulation of the nerve produces a coughing reflex and the intention is to reduce this by intravenous injection of the active substance. The minimal effective dose MED is determined by increasing the dose from 0.1 mg/kg of body weight up to 0.3 mg/kg, 1.0 mg/kg, 3.0 mg/kg and 6.0 mg/kg, until the dose is sufficient for completely suppressing the coughing reflex.
In these tests each animal was given, on the one hand, codeine and, on the other hand, at sufficient time intervals also glaucine, so that the ratio of the minimal effective doses of glaucine and codeine can be deduced.

[4] = test system: isolated guinea pig intestines (contractions induced by electric voltages); experiment: Suppression of electrically induced contractions in isolated guinea pig intestines, Comparative test 4; conditions: isolated guinea pig intestine; codeine: increased doses; d-glaucine: higher concentrations than 4×10^-5; d,l-glaucine: 4×10^-5 to 6×10^-5
[5] = test system: smooth muscles of isolated guinea pigs intestine; experiment: Effect on smooth muscles of isolated guinea pig intestine in a bath, Comparative test 3; conditions: for spontaneous activity and tone, in words: molar concentrations between 1×10^-5 and 8×10^-5
Experimental: Experiments were conducted in vitro to determine the effects of different active substances on the smooth muscles of isolated guinea pigs intestine samples suspended in a bath. After adding to the bath different doses of the active substances, the contractive force of the muscle material was recorded.

cough pulses [6] = experiment: Oral citric acid aerosol cough test in guinea pigs, time course 1-24 h, Comparative test 6; type: in vivo; conditions: for Cough pulses during 8 minutes, percent of control value, after 1 h / Cough pulses during 8 minutes, percent of control value, after 3 h / Cough pulses during 8 minutes, percent of control value, after 5 h / Cough pulses during 8 minutes, percent of control value, after 24 h: codeine phosphate 75, d,l-glaucine hydrobromide 150, hydrochloride 135, embonate 378 mg/kg
Experimental: In a further comparative test, 40 female guinea pigs with body weights between 230 and 500 g were divided into 4 groups and each animal was again subjected to the action of a 20% citric acid aerosol for 8 minutes. From the control values thus obtained the average control value for each group was calculated. Each animal of each group was then given, by means of a throat probe, either 75 mg/kg of codeine phosphate, or 135 mg/kg of d,l-glaucine hydrochloride, or 150 mg/kg of d,1-glaucine hydrobromide, or 378 mg/kg of d,l-glaucine embonate. These doses are the equimolar quantities, based on glaucine. After a period of 1, or 3, or 5, or 24 hours each animal was again subjected for 8 minutes to the action of the citric acid aerosol, and the number of cough pulses during this period was recorded. The values thus obtained were compared with the control values and the percent deviation of the average measured value for each group, from the average control value, was calculated.

cough pulses [7] = experiment: Oral citric acid aerosol cough test in guinea pigs, 1 h (equivalent effective doses), Comparative test 6; type: in vivo; conditions: for Cough pulses percent of control value: 20% citric acid aerosol 8 min
mice = experiment: Toxicity (LD50) in mice by the Wilcox method, Comparative test 7; type: in vivo; conditions: hydrobromide
Experimental: as §1

[8] = po, peroral, read-out: LD50 peroral
[9] = sc, subcutaneous, read-out: LD50 subcutaneous

COc1cc2c(cc1OC)-c1c(OC)c(OC)cc3c1[C@H](C2)N(C)CC3 [d-glaucine hydrobromide, reference compound]
ED50 (cough pulses [1]): 54 mg/kg | suppression of electrically induced contraction reflexes, in words ([2]; 4×10^-5): suppresses electrically induced contraction reflexes | electrically induced contractions (Table III) ([2]; molar concentration 1 × 10^-5, hydrobromide): 77 and 95 | electrically induced contractions (Table III) ([2]; molar concentration 2 × 10^-5, hydrobromide): 74 and 79 | electrically induced contractions (Table III) ([2]; molar concentration 4 × 10^-5, hydrobromide): 44 and 36 | Distance travelled average % (of intestine length) (intestinal motility; 10 mg/kg): 74.6% | Distance travelled average % (of intestine length) (intestinal motility; 30 mg/kg): 80.1% | Distance travelled average % (of intestine length) (intestinal motility; 100 mg/kg): 36.4% | LD50 [3, 8]: 345 mg/kg | LD50 [3, 9]: 125 mg/kg | minimal effective dose (coughing centre): 1 mg/kg | Duration of cough suppression (coughing centre): 5 to 39 min | induced spontaneous activity, in words [4]: the increasing spontaneous activity prevents any distinguishing between direct production and electric production of the activity

COc1cc2c(cc1OC)-c1c(OC)c(OC)cc3c1[C@H](C2)N(C)CC3 [d-glaucine, reference compound]
spontaneous activity and tone, in words [5]: dose-dependent increase of spontaneous activity and tone

COc1ccc2c3c1O[C@H]1[C@@H](O)C=C[C@H]4[C@@H](C2)N(C)CC[C@@]341 [codeine, reference compound]
contractive force of the muscle material, in words ([5]; molar concentrations between 1×10^-5 and 32×10^-5): produces contractions which depend on the dose

COc1cc2c(cc1OC)-c1c(OC)c(OC)cc3c1C(C2)N(C)CC3 (racemic) [d,l-glaucine hydrochloride]
Cough pulses during 8 minutes, percent of control value, after 1 h (cough pulses [6]; hydrochloride): 80% | Cough pulses during 8 minutes, percent of control value, after 3 h (cough pulses [6]; hydrochloride): 72% | Cough pulses during 8 minutes, percent of control value, after 5 h (cough pulses [6]; hydrochloride): 69% | Cough pulses during 8 minutes, percent of control value, after 24 h (cough pulses [6]; hydrochloride): 102%

COc1cc2c(cc1OC)-c1c(OC)c(OC)cc3c1C(C2)N(C)CC3 (racemic) [d,l-glaucine embonate]
Cough pulses during 8 minutes, percent of control value, after 1 h (cough pulses [6]): 80% | Cough pulses during 8 minutes, percent of control value, after 3 h (cough pulses [6]): 51% | Cough pulses during 8 minutes, percent of control value, after 5 h (cough pulses [6]): 57% | Cough pulses during 8 minutes, percent of control value, after 24 h (cough pulses [6]): 81% | duration of effect, in words (cough pulses [6]; guinea pigs, 378 mg/kg): considerably longer-lasting effect without any delay in the beginning of the effect

COc1cc2c(cc1OC)-c1c(OC)c(OC)cc3c1[C@@H](C2)N(C)CC3 [l-glaucine]
spasmogenic activity ([5]; in vitro, isolated guinea pig intestine): no spasmogenic activity | spontaneous activity and tone, in words [5]: a reduction in spontaneous activity and no increase in tone

COc1cc2c(cc1OC)-c1c(OC)c(OC)cc3c1C(C2)N(C)CC3 (racemic) [d,l-glaucine hydrobromide]
Cough pulses during 8 minutes, percent of control value, after 1 h (cough pulses [6]; hydrobromide): 90% | Cough pulses during 8 minutes, percent of control value, after 3 h (cough pulses [6]; hydrobromide): 47% | Cough pulses during 8 minutes, percent of control value, after 5 h (cough pulses [6]; hydrobromide): 59% | Cough pulses during 8 minutes, percent of control value, after 24 h (cough pulses [6]; hydrobromide): 113% | Cough pulses percent of control value (cough pulses [7]; 100 mg/kg): 30% | Cough pulses percent of control value (cough pulses [7]; 200 mg/kg): 44% | dose having about the same effect (codeine phosphate vs d,l-glaucine hydrobromide) (cough pulses [7]; guinea pigs): ~150 mg per kg of body weight | ED50 (cough pulses [1]): 27.2 mg/kg | ED50 value, comparison in words (cough pulses [1]; 30 min): even lower ED50 value than l-glaucine hydrobromide | suppression of electrically induced spasms, in words ([2]; 4×10^-5 to 6×10^-5): suppress the electrically induced spasms practically completely | electrically induced contractions (Table III) ([2]; molar concentration 1 × 10^-5): 63 | electrically induced contractions (Table III) ([2]; molar concentration 2 × 10^-5): 48 | electrically induced contractions (Table III) ([2]; molar concentration 4 × 10^-5): 8 | electrically induced contractions (Table III) ([2]; molar concentration 4 × 10^-6): 81 | electrically induced contractions (Table III) ([2]; molar concentration 8 × 10^-6): 63 | toxicity, comparison in words (mice): about equal | LD50 [3, 8]: 686 mg/kg | LD50 [3, 9]: 320 mg/kg | minimal effective dose (coughing centre): 1 mg/kg | Duration of cough suppression (coughing centre): 44 to 62 min | duration of the effect, in words (coughing centre; at minimal dose): considerably greater for the d,l-glaucine hydrobromide than for the d-glaucine hydrobromide | induced spontaneous activity, in words [4]: without at the same time inducing any spontaneous activity
